Structures are written as SMILES.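 Cells were grown in 96-well plates and exposed to each compound for 48 hours at five concentrations; endpoints were interpolated linearly between bracketing concentrations, or set to the highest concentration if not reached. GI50 marks 50% less growth.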 Calls of active or inactive are those of the source. Rule as the data show it: active = GI50 up to about 1.1 µM and inactive = higher.

Holding throughout (experiment): NCI anticancer screen, dose series, 48 h
Test [1] has as its system 786-0.
Test [2] relates to A498.
Test [3] has as its system A549.
Test [4] deals with HOP-92.
Test [5] deals with Hs-578T.
The subject of test [6] is K562.
In test [7] the test system is MDA-N.
Test [8] has as its system Malme-3M.
Test [9] relates to NCI-H226.
For test [10], the system named is NCI-H23.
Test [11] relates to NCI-H522.
Test [12] relates to PC-3.
Test [13] deals with RPMI-8226.
Test [14] concerns SNB-19.
In test [15] the test system is SNB-75.
In test [16] the test system is U-251.
The subject of test [17] is UACC-257.
In test [18] the test system is UACC-62.
Test [19] concerns HL-60.
The test system of test [20] is SK-MEL-28.

Regarding `Cn1c(=O)c2c(no[n+]2[O-])c2ccccc21`, the GI50 was 15.5 µM (inactive) in test [1]; 31.9 µM (inactive) in test [2]; 23.3 µM (inactive) in test [3]; 20.2 µM (inactive) in test [4]; 23.3 µM (inactive) in [5]; 14.3 µM (inactive) in test [6]. For the same compound, the GI50 in test [7] was 26.4 µM (inactive); in [8], 14.2 µM (inactive); in test [9] it was 16.9 µM (inactive); in test [10], 15 µM (inactive); in test [11] it was 13.6 µM (inactive); in [12], 24.9 µM (inactive). Further, the GI50 is 22.2 µM (inactive) in test [13]; 26.4 µM (inactive) in [14]; 18.6 µM (inactive) in test [15]; 15.8 µM (inactive) in test [16]; 15.3 µM (inactive) in test [17]; 16.7 µM (inactive) in test [18].
Consider `COC(=O)[C@H](Cc1c[nH]c2ccccc12)NC(=O)c1ccccc1I`, for which the GI50 was 16.1 µM (inactive) in [1]; 18.5 µM (inactive) in test [2]; > 100 µM (inactive) in test [3]; 24.9 µM (inactive) in [19]; 16.9 µM (inactive) in test [4]; 9.84 µM (inactive) in [5]. Moreover, the GI50 was 29.3 µM (inactive) in test [6]; 8.41 µM (inactive) in [7]; 18.7 µM (inactive) in test [8]; 26.8 µM (inactive) in test [9]; 15.6 µM (inactive) in [11]; 24.6 µM (inactive) in [12]. Moreover, the GI50 is 89.3 µM (inactive) in test [20]; > 100 µM (inactive) in [14]; 11.8 µM (inactive) in test [15]; 31 µM (inactive) in test [16]; 18.8 µM (inactive) in test [17]; 18.2 µM (inactive) in test [18].
Take `COc1cccc2c1C(CO)N1C(C#N)C3CC(C(=O)O)C(C1C2)N3C` (stereo not drawn): the GI50 in test [1] was 1.3 µM (inactive); in test [2], 2.77 µM (inactive); in test [3], 7.52 µM (inactive); in test [19] it was 1.52 µM (inactive); in [4], 1.99 µM (inactive); in [5], 0.238 µM (active). Moreover, the GI50 is 1.63 µM (inactive) in [6]; 0.273 µM (active) in test [7]; 1.92 µM (inactive) in test [8]; 1.57 µM (inactive) in test [10]; 0.0615 µM (active) in test [11]; 0.331 µM (active) in test [12]. The GI50 in [13] was 1.15 µM (inactive); in test [20] it was 1.56 µM (inactive); in test [14] it was 2.62 µM (inactive); in [15], 1.6 µM (inactive); in test [16], 1.52 µM (inactive); in test [17], 1.66 µM (inactive). Also, in [18], the GI50 was 1.16 µM (inactive).
With `COc1cc2c(cc1OC)C1c3ccccc3CCN1CC2` (stereo not drawn), the GI50 in [1] was > 100 µM (inactive); in [2], > 100 µM (inactive); in test [3] it was > 100 µM (inactive); in test [19] it was 30.4 µM (inactive); in test [4], 59.3 µM (inactive); in test [5], 58.2 µM (inactive). In addition, the GI50 was 57.7 µM (inactive) in test [6]; 41.1 µM (inactive) in [7]; > 100 µM (inactive) in test [8]; 41.2 µM (inactive) in test [9]; 63.5 µM (inactive) in [10]; > 100 µM (inactive) in test [11]. Besides, the GI50 is > 100 µM (inactive) in test [12]; 79.3 µM (inactive) in test [20]; > 100 µM (inactive) in [14]; 44.6 µM (inactive) in test [15]; 95.3 µM (inactive) in test [16]; > 100 µM (inactive) in test [17]. Besides, the GI50 in test [18] is 58.1 µM (inactive).
Turning to `CC1NC(C(=O)O)Cc2cc(O)c(O)cc21` (stereo not drawn), the GI50 in [1], in [2], in test [3], in test [19], in test [4] and in [5] was > 100 µM (inactive) in each case. The GI50 in test [7], in test [8], in test [9], in [10], in test [11] and in test [12] was > 100 µM (inactive) throughout. In addition, the GI50 in [13], in [20], in [14], in test [16], in [17] and in [18] was > 100 µM (inactive) throughout.
`Cc1ccc(C)c(NC(=O)C(Cc2c[nH]c3ccccc23)NC(=O)OCc2ccccc2)c1` (stereo not drawn): the GI50 in test [1] is 15.5 µM (inactive); in test [2] it was 35.6 µM (inactive); in [3], 13.2 µM (inactive); in test [19], 3 µM (inactive); in test [4], 17.2 µM (inactive); in test [5], 58.7 µM (inactive). Besides, the GI50 in test [6] was 12.7 µM (inactive); in test [7], 29.3 µM (inactive); in test [8], 25.4 µM (inactive); in test [10], 21.3 µM (inactive); in [11] it was 16.1 µM (inactive); in test [12] it was 11.5 µM (inactive). The GI50 in [13] was 12 µM (inactive); in test [20] it was 25.8 µM (inactive); in test [14] it was 13.8 µM (inactive); in test [15], 11.3 µM (inactive); in test [16] it was 17.1 µM (inactive); in test [17], 10.6 µM (inactive). Besides, the GI50 in test [18] was 15.9 µM (inactive).
For `Cc1cccc(/C(Br)=C2/OC(=O)c3ccccc32)c1`, the GI50 is > 100 µM (inactive) in test [1]; > 100 µM (inactive) in [2]; > 100 µM (inactive) in [3]; > 10 µM (inactive) in [19]; > 100 µM (inactive) in [4]; > 100 µM (inactive) in test [5]. The GI50 in test [7], in [8], in test [10], in test [11], in [12] and in [13] was > 100 µM (inactive) in each case. Further, the GI50 in test [20], in test [15], in test [16], in test [17] and in test [18] was > 100 µM (inactive) in each case.
For the compound `COc1ccc(C2SC(=N)Nc3c2c(C)nn3C(=O)c2ccncc2)cc1` (stereo not drawn), the GI50 in [1] is > 100 µM (inactive); in test [2], 98.4 µM (inactive); in [3], > 100 µM (inactive); in test [19] it was 87.1 µM (inactive); in [4] it was > 100 µM (inactive); in test [5], > 100 µM (inactive). Also, the GI50 is 64.7 µM (inactive) in test [6]; > 100 µM (inactive) in test [7]; > 100 µM (inactive) in [8]; > 100 µM (inactive) in test [9]; > 100 µM (inactive) in test [10]; > 100 µM (inactive) in [12]. Moreover, the GI50 in [13] was 57.3 µM (inactive); in test [20], > 100 µM (inactive); in test [14], > 100 µM (inactive); in [15] it was > 100 µM (inactive); in test [16] it was > 100 µM (inactive); in test [17], > 100 µM (inactive). The GI50 in [18] was > 100 µM (inactive).
Regarding `CCOc1ccc2c(c1)c(=O)c1c(NCCN(CC)CC)ccc3nnn2c31`, the GI50 in [1] was > 32.8 µM (inactive); in test [2], > 100 µM (inactive); in test [3], > 39.5 µM (inactive); in test [4], 29.2 µM (inactive); in test [5], 57 µM (inactive); in test [6], 18.2 µM (inactive). Also, the GI50 in test [7] is 17.5 µM (inactive); in test [8] it was 17.1 µM (inactive); in test [9], 11.9 µM (inactive); in [10] it was 14.9 µM (inactive); in [11], 7.6 µM (inactive); in test [12], 18.8 µM (inactive). Besides, the GI50 is 15.1 µM (inactive) in [13]; > 40.4 µM (inactive) in test [20]; > 79.8 µM (inactive) in [14]; 19.7 µM (inactive) in [16]; > 41.6 µM (inactive) in test [17]; > 100 µM (inactive) in test [18].
For `CCCCn1c2c(n(CCCC)c1=S)-c1c(n(CCCC)c(=S)n1CCCC)SSSS2`, the GI50 is 1.38 µM (inactive) in [1]; > 47.2 µM (inactive) in [2]; 26.7 µM (inactive) in test [3]; 0.301 µM (active) in [4]; 3.82 µM (inactive) in test [5]; 0.371 µM (active) in test [6]. The GI50 in test [7] was 2.84 µM (inactive); in test [8], 0.36 µM (active); in test [9] it was 16.6 µM (inactive); in test [10], 3.31 µM (inactive); in test [11], 0.0785 µM (active); in test [12], 0.414 µM (active). The GI50 in [13] is 0.399 µM (active); in test [20] it was 9.02 µM (inactive); in [14], 3.86 µM (inactive); in test [15], 4.48 µM (inactive); in [16], 1.99 µM (inactive); in test [17] it was 2.29 µM (inactive). Further, the GI50 in test [18] is 1.47 µM (inactive).
For `COc1ccccc1/N=N/c1c(O)c(S(=O)(=O)O)cc2cc(S(=O)(=O)O)ccc12`, the GI50 in test [1], in [2], in test [3], in test [4], in [5] and in [6] was > 100 µM (inactive) throughout. In addition, the GI50 in [7], in test [8], in [9], in test [10], in test [11] and in test [12] was > 100 µM (inactive) in each case. For the same compound, the GI50 in test [13], in [20], in [14], in test [15], in test [16] and in [17] was > 100 µM (inactive) throughout. In addition, the GI50 in [18] was > 100 µM (inactive).

The values above are taken from ChEMBL document CHEMBL1201862, “PubChem BioAssay data set” (2004).
